{"source": "paper PMC9025810", "about": "“Interaction of Antifungal Drugs with CYP3A- and OATP1B-Mediated Venetoclax Elimination” (Pharmaceutics, 2022)", "key": {"[1]": {"conditions": "plasma; cited from earlier work"}, "[2]": {"conditions": "cited from earlier work"}, "OATP1B1 [3]": {"biological_target": "T1, OATP1B1 (Homo sapiens, UniProt Q9Y6L6)", "T1 sequence (Q9Y6L6 1-691)": "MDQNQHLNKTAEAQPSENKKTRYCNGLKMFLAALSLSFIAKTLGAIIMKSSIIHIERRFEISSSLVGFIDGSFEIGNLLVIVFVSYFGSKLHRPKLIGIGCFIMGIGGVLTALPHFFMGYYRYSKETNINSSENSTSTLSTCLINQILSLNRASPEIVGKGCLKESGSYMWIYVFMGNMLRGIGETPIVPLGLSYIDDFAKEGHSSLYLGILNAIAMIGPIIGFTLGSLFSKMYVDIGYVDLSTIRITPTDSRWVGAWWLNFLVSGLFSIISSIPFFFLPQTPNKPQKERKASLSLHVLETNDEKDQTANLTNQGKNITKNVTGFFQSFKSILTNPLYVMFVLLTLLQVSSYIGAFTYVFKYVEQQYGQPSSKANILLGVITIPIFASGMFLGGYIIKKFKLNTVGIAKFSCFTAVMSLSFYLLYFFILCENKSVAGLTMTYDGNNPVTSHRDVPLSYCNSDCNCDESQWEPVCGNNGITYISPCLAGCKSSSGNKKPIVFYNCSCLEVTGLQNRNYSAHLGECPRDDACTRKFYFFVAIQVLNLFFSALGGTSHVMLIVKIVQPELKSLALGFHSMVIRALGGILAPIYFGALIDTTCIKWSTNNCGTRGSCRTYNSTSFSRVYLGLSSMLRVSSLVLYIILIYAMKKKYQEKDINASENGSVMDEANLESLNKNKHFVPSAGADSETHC", "assay": "Radioactive uptake and membrane/intracellular fractionation in cells overexpressing OATP1B1 or vector", "format": "cell-based", "design": "expressed in transfected cells", "protocol": "For experiments seeking to directly determine if venetoclax is an OATP1B1 substrate, cells overexpressing OATP1B1 or VC were seeded in six-well plates in phenol red-free DMEM containing 10% FBS and doxycycline (1 µg/mL) for 24 h. […] Cells were then immediately lysed with 1 mL of 1 N NaOH for 4 h on an orbital shaker at room temperature to measure total radioactivity. Alternatively, cells were trypsinized with 200 µL of TrypLE (Thermo Fisher Scientific, Waltham, MA, USA) for 3–5 min, rinsed with 800 µL of ice-cold washing buffer, and ProteoExtract Native Membrane Protein Extraction Kits (EMD Millipore, Burlington, MA, USA) were used to separate membrane and intracellular fractions. Dissociated cells were then transferred to 1.5-mL Eppendorf tubes. For measurement of total radioactivity, cells were neutralized with 500 µL of 2 M HCl after 4 h. For measurement of total radioactivity in the membrane or intracellular fraction, cells were isolated following the manufacturer’s protocol, as we have reported previously; this procedure is based on a differential extraction procedure under non-denaturing conditions."}, "OATP1B1 [4]": {"biological_target": "T1, OATP1B1", "assay": "Competitive counterflow assay with 8-acetoxy-trisulfopyrene", "format": "cell-based", "design": "expressed in transfected cells", "protocol": "Competitive counterflow assays were performed with 8-acetoxy-trisulfopyrene, an activatable fluorogenic probe for OATP1B1, as described previously. In brief, cells expressing a vector or OATP1B1 were seeded in 96-well opaque plates in phenol-red free DMEM media with 10% FBS and induced with doxycycline for 24 h. On the day of the experiment, the media was removed, and the cells were washed three times with warm PBS. The cells were then incubated for 20 min at 37 °C with 100 µL of 5 µM 8-acetoxypyrene-1,3,6-trisulfonate uptake buffer (ACE; 125 mM NaCl, 4.8 mM KCl, 1.2 mM CaCl2, 1.2 mM KH2PO4, […], 25 mM 2-N-morpholino), ethanesulfonic acid, and 5.6 mM glucose, with the pH adjusted to 5.5). […] The fluorescence was measured at excitation and emission wavelengths of 460 nm and 510 nm, respectively, after 20 min of incubation to control for the number of cells.\nThe plates were incubated for 20 min at 37 °C. In the final step, the supernatant was removed, and the cells were washed three times with 200 µL ice-cold PBS to stop the reaction. PBS was then removed and 200 µL of 0.1 N NaOH was added to each well to normalize the pH. The fluorescence was measured as described above after another 20 min incubation at room temperature. The levels of cell dye were reported as a percent of the measurement from cells containing ACE alone."}}, "data": [{"smiles": "CC1(C)CCC(CN2CCN(c3ccc(C(=O)NS(=O)(=O)c4ccc(NCC5CCOCC5)c([N+](=O)[O-])c4)c(Oc4cnc5[nH]ccc5c4)c3)CC2)=C(c2ccc(Cl)cc2)C1", "note": "[Venetoclax]", "values": [{"measurement": "Protein-bound in plasma", "setting": "[1]", "value": "> 99", "unit": "%"}, {"measurement": "Variation in apparent oral clearance", "setting": "[2]; at approved doses, patients", "value": "~15", "unit": "fold"}, {"measurement": "DDI between venetoclax and ketoconazole (increase in venetoclax exposure)", "setting": "[2]; humans", "value": "~ 6 fold"}, {"measurement": "Increase in systemic exposure to venetoclax with a single dose of rifampin", "setting": "[2]; humans", "value": 2, "unit": "fold"}, {"measurement": "Uptake in the intracellular fraction with overexpression of OATP1B1 versus vector", "setting": "OATP1B1 [3]; 0.2 µM EβG or 1 µM venetoclax, 15 min", "value": "significant increases"}, {"measurement": "Detectable compound associated with the membrane fraction", "setting": "OATP1B1 [3]; after correction for the intracellular fraction", "value": "> 96", "unit": "%"}, {"measurement": "Venetoclax remaining unbound (membrane-binding experiment)", "setting": "OATP1B1 [3]; in vitro, cells", "value": "< 3", "unit": "%"}, {"measurement": "Radioactivity in the membrane fraction relative to the probe substrate EβG", "setting": "OATP1B1 [3]; membrane fraction, 1 µM venetoclax vs 0.2 µM EβG", "value": "> 500", "unit": "fold"}, {"measurement": "Detected total radioactivity relative to the probe substrate EβG", "setting": "OATP1B1 [3]; whole cell lysate, cells expressing OATP1B1 or vector, 15 min", "value": "> 10", "unit": "fold"}, {"measurement": "Effect on fluorescence (cell dye level) in competitive counterflow", "setting": "OATP1B1 [4]; 5 µM ACE, venetoclax 200 µM, cyclosporin A 10 µM, paraformaldehyde 0.5%, 20 min", "value": "significantly decreased fluorescence"}, {"measurement": "Actual unbound concentration of venetoclax in counterflow experiments", "setting": "OATP1B1 [4]; nominal concentration 200 µM", "value": "< 10", "unit": "µM"}]}]}
